{"source": "ChEMBL document CHEMBL3045639", "about": "“Evaluation of three diatomaceous earth and one natural pyrethrum formulations against pupae of Tribolium confusum DuVal (Coleoptera: Tenebrionidae) on wheat and flour” (2006)", "key": {"Sitophilus oryzae [1]": {"test_system": "Sitophilus oryzae", "assay": "Insecticidal activity against Sitophilus oryzae (rice weevil) infected wheat assessed as increase in mortality at 0.75 ppm applied as spray after 14 days in absence of diatomaceous earth", "type": "functional, organism-based"}, "Tribolium confusum [2]": {"test_system": "Tribolium confusum", "assay": "Insecticidal activity against Tribolium confusum (confused flour beetle) infected wheat assessed as increase in mortality at 0.125 to 0.75 ppm applied as spray after 48 hr in presence of diatomaceous earth", "type": "functional, organism-based"}, "Tribolium confusum [3]": {"test_system": "Tribolium confusum", "assay": "Insecticidal activity against Tribolium confusum (confused flour beetle) infected wheat assessed as increase in mortality at 0.25 to 0.75 ppm applied as spray after 14 days in absence of diatomaceous earth", "type": "functional"}, "Sitophilus oryzae [4]": {"test_system": "Sitophilus oryzae", "assay": "Insecticidal activity against Sitophilus oryzae (rice weevil) infected wheat assessed as mortality at 0.75 ppm applied as spray after 48 hr in absence of diatomaceous earth", "type": "functional"}, "Sitophilus oryzae [5]": {"test_system": "Sitophilus oryzae", "assay": "Insecticidal activity against Sitophilus oryzae (rice weevil) infected wheat assessed as mortality at 0.75 ppm applied as spray after 48 hr in presence of diatomaceous earth", "type": "functional"}, "Tribolium confusum [6]": {"test_system": "Tribolium confusum", "assay": "Insecticidal activity against Tribolium confusum (confused flour beetle) infected wheat assessed as increase in mortality at 0.125 to 0.75 ppm applied as spray after 7 days in absence of diatomaceous earth", "type": "functional, organism-based"}, "Tribolium confusum [7]": {"test_system": "Tribolium confusum", "assay": "Insecticidal activity against Tribolium confusum (confused flour beetle) infected wheat assessed as increase in mortality at 0.125 ppm applied as spray after 14 days in absence of diatomaceous earth", "type": "functional", "details": "336 h"}, "Sitophilus oryzae [8]": {"test_system": "Sitophilus oryzae", "assay": "Insecticidal activity against Sitophilus oryzae (rice weevil) infected wheat assessed as mortality at 0.125 to 0.75 ppm applied as spray after 24 hr in absence of diatomaceous earth", "type": "functional"}, "Sitophilus oryzae [9]": {"test_system": "Sitophilus oryzae", "assay": "Insecticidal activity against Sitophilus oryzae (rice weevil) infected wheat assessed as increase in mortality at 0.125 ppm applied as spray after 7 days in absence of diatomaceous earth", "type": "functional, organism-based"}, "Sitophilus oryzae [10]": {"test_system": "Sitophilus oryzae", "assay": "Insecticidal activity against Sitophilus oryzae (rice weevil) infected wheat assessed as decrease in progeny productionc at 0.125 to 0.75 ppm applied as spray after 60 days in presence of diatomaceous earth", "type": "functional, organism-based"}, "Sitophilus oryzae [11]": {"test_system": "Sitophilus oryzae", "assay": "Insecticidal activity against Sitophilus oryzae (rice weevil) infected wheat assessed as increase in mortality at 0.125 to 0.25 ppm applied as spray after 14 days in presence of diatomaceous earth", "type": "functional, organism-based"}, "Sitophilus oryzae [12]": {"test_system": "Sitophilus oryzae", "assay": "Insecticidal activity against Sitophilus oryzae (rice weevil) infected wheat assessed as increase in mortality at 0.125 to 0.25 ppm applied as spray after 48 hr in presence of diatomaceous earth", "type": "functional, organism-based"}, "Sitophilus oryzae [13]": {"test_system": "Sitophilus oryzae", "assay": "Insecticidal activity against Sitophilus oryzae (rice weevil) infected wheat assessed as decrease in progeny productionc at 0.125 to 0.75 ppm applied as spray after 60 days in absence of diatomaceous earth", "type": "functional, organism-based"}, "Tribolium confusum [14]": {"test_system": "Tribolium confusum", "assay": "Insecticidal activity against Tribolium confusum (confused flour beetle) infected wheat assessed as increase in mortality at 0.125 to 0.75 ppm applied as spray after 24 hr in absence of diatomaceous earth", "type": "functional, organism-based"}, "Sitophilus oryzae [15]": {"test_system": "Sitophilus oryzae", "assay": "Insecticidal activity against Sitophilus oryzae (rice weevil) infected wheat assessed as increase in mortality at 0.75 ppm applied as spray after 14 days in presence of diatomaceous earth", "type": "functional, organism-based"}, "Sitophilus oryzae [16]": {"test_system": "Sitophilus oryzae", "assay": "Insecticidal activity against Sitophilus oryzae (rice weevil) infected wheat assessed as mortality at 0.75 ppm applied as spray after 7 days in absence of diatomaceous earth", "type": "functional", "details": "168 h"}}, "note": "Calls of active or inactive are those of the source. The rule behind the calls is not given here.", "data": [{"smiles": "CC1(C)C(C=C(Cl)Cl)C1C(=O)OC(C#N)c1ccc(F)c(Oc2ccccc2)c1", "note": "(stereo unspecified) [CYFLUTHRIN]", "values": [{"measurement": "Activity", "setting": "Sitophilus oryzae [1]", "result": "Active"}, {"measurement": "Activity", "setting": "Tribolium confusum [2]", "result": "Active"}, {"measurement": "mortality", "setting": "Tribolium confusum [3]", "result": 100, "unit": "%"}, {"measurement": "mortality at 0.75 ppm", "setting": "Sitophilus oryzae [4]", "result": 79, "unit": "%"}, {"measurement": "mortality at 0.75 ppm", "setting": "Sitophilus oryzae [5]", "result": 79, "unit": "%"}, {"measurement": "Activity", "setting": "Tribolium confusum [6]", "result": "Active"}, {"measurement": "mortality at 0.125 ppm", "setting": "Tribolium confusum [7]", "result": "> 91", "unit": "%"}, {"measurement": "mortality", "setting": "Sitophilus oryzae [8]", "result": 6, "unit": "%"}, {"measurement": "Activity", "setting": "Sitophilus oryzae [9]", "result": "Active"}, {"measurement": "Activity", "setting": "Sitophilus oryzae [10]", "result": "Active"}, {"measurement": "Activity", "setting": "Sitophilus oryzae [11]", "result": "Active"}, {"measurement": "Activity", "setting": "Sitophilus oryzae [12]", "result": "Active"}, {"measurement": "Activity", "setting": "Sitophilus oryzae [13]", "result": "inactive"}, {"measurement": "Activity", "setting": "Tribolium confusum [14]", "result": "Active"}, {"measurement": "Activity", "setting": "Sitophilus oryzae [15]", "result": "Active"}, {"measurement": "mortality at 0.75 ppm", "setting": "Sitophilus oryzae [16]", "result": "> 98", "unit": "%"}]}]}
